Consider two compounds from patent US20120220480A1, “METHOD FOR THE DETECTION OF RENAL DAMAGE” (UNIVERSIDAD DE SALAMANCA, priority 2009, published 2012).

Marks after values point to notes of the source that are not given here.

For data set [1] the following is noted: Leehey D J et al., 1993; cited from earlier work.
For a further data set, the system named is Female Wistar rats. Briefly: Gentamicin-induced kidney damage in rats: survival, body weight, serum and urine biochemical measurements. How it is done:
(§1) Female Wistar rats were used weighing 200-250 g. The animals were allocated under controlled environmental conditions in individual metabolic cages, for individual urine sample collection every 24 hours. Normal feed and water were administered ad libitum. […] On day 7, the animals were anaesthetised with sodium pentobarbital and the kidneys were perfused by the aorta with saline (0.9% NaCl) to eliminate the blood. The kidneys were immediately dissected. One was frozen in liquid nitrogen and subsequently kept at −80° C. for Western blot studies, and the other was soaked in p-formaldehyde at 3.7% for histological studies. Blood samples were also obtained in heparinised capillaries at different time points by a small incision in the tail tip. Blood was centrifuged and serum was kept at −80° C. until use. Urine was cleared by centrifugation at 10,000 g and 4° C. during 10 minutes, and kept at −80° C. until use.
Serum and urinary creatinine and urea nitrogen concentration were measured using commercial reactive strips (Roche Diagnostics) and the Reflotron® automated analyser (Roche Diagnostics). […] Urine protein concentration was measured by the Bradford method (Bradford, 1976. Anal Biochem, 72: 248-254). Urine NAG content was indirectly determined by the level of NAG activity. NAG enzymatic activity was determined by a colorimetric method based on the conversion of 3-cresolsulfonphthaleinyl-N-acetyl-D-glucosaminide into the purple 3-cresol-cresolsulfonphthaleinyl, measured at 580 nm using a plate photometer (Thermo). To measure NAG activity a commercial kit was used (Roche Diagnostics) following the manufacturer's instructions.

Data set [2] deals with gelsolin. Briefly: Renal tissue gene expression by RT-PCR, gelsolin. Type of data set: in vivo, rat. To be noted: 3 and 6 days treatment (FIG. 8). On the procedure: (§2) Female Wistar rats were used weighing 200-250 g. […] Normal feed and water were administered ad libitum. […] The kidneys were immediately dissected.
(§3) RT-PCR-amplification of reg IIIb, gelsolin and GAPDH was performed with the next primers: for rat reg IIIb, SEQ ID NO: 15 and SEQ ID NO: 16; for rat gelsolin, SEQ ID NO: 17 and SEQ ID NO: 18; for rat glyceraldehyde 3-phosphate dehydrogenase (GAPDH), SEQ ID NO: 19 and SEQ ID NO: 20. PCR conditions were: 1×(95° C.×4 min); 30×(95° C.×1 min+Tm×1 min); 1×72° C.×10 min); where Tm was 55.5° C. for reg IIIb, 55.0° C. for gelsolin, and 55.9° C. for GAPDH.

In another data set the test system is Kidney sections. Briefly: Renal histopathological study (hematoxilin and eosin stained kidney sections). It is filed as in vivo, rat. To be noted: rats. On the procedure:
as §2
The kidneys were kept in p-formaldehyde all night at 4° C. Next, paraffin blocks were made and 5-μm tissue sections were cut and stained with hematoxilin and eosin. Photographs were taken under an Olympus BX51 microscope connected to an Olympus DP70 colour digital camera.

Data set [3] concerns gelsolin. Briefly: Western blot analysis of gelsolin in urine and serum of treated rats. On the procedure:
as §1
Western blots were run with (i) urine samples (21 μl per sample), (ii) tissue extracts (100 μg total protein per sample) prepared by homogenizing the kidneys with a tissue mixer (Ultra-Turrax T8, IKA®-Werwe) at 4° C. in homogenization buffer (140 mM NaCl, 20 mM Tris-HCl pH=7.5, […] ethylenediaminetetraacetic acid—EDTA-, 10% glycerol, 1% Igepal CA-630, 1 μg/mL aprotinin, 1 μg/mL leupeptin, 1 μg/mL pepstatin A, 1 mM phenylmethylsulphonyl fluoride—PMSF—), or (iii) albumin-free blood serum. Albumin was removed from serum with a column-based, commercial kit based on the immunological retention of rat albumin (Qproteome Murine Albumin Depletion Kit, Quiagen). Samples were separated by electrophoresis in 10-15% acrylamide gels (Mini Protean II system, BioRad). Immediately, proteins were electrically transferred to an Immobilon-P membrane (Millipore). Membranes were probed with antibodies against KIM-1 (R&D Systems), bone morphogenetic protein 7 (BMP-7, Santa Cruz Biotechnology), NGAL (MBL), PAI-1 (BD Biosciences), reg IIIb (R&D Systems), and gelsolin (Santa Cruz Biotechnology).

Data set [4] concerns reg IIIb. The data set is described as follows: Western blot analysis of reg IIIb in urine and serum of treated rats. How it is done: Female Wistar rats were used weighing 200-250 g. The animals were allocated under controlled environmental conditions in individual metabolic cages, for individual urine sample collection every 24 hours. Normal feed and water were administered ad libitum. […] On day 7, the animals were anaesthetised with sodium pentobarbital and the kidneys were perfused by the aorta with saline (0.9% NaCl) to eliminate the blood. The kidneys were immediately dissected. One was frozen in liquid nitrogen and subsequently kept at −80° C. for Western blot studies, and the other was soaked in p-formaldehyde at 3.7% for histological studies. Blood samples were also obtained in heparinised capillaries at different time points by a small incision in the tail tip. Blood was centrifuged and serum was kept at −80° C. until use. Urine was cleared by centrifugation at 10,000 g and 4° C. during 10 minutes, and kept at −80° C. until use. […]

Data set [5] concerns reg IIIb. Briefly: Renal tissue gene expression by RT-PCR, reg IIIb. It is filed as in vivo, rat. To be noted: as early as on day 3, highest on day 6 (FIG. 8-A). On the procedure:
as §2, §3

Setting [6] is: rats, gentamicin i.p. 150 mg/kg, after 7 days treatment.

In the case of gentamicin, the “Proportion of treatments in which nephrotoxicity appears” value in data set [1] is 10-25%. In the data set with Female Wistar rats (setting [6]), the Proteinuria is 40 ± 7.4^a mg/day, the Urine flow is listed as 18 ± 3^a mL/day and the “Δ Weight (body weight as a percentage of the initial weight)” value is 95 ± 3^a %. In addition, the “Renal expression pattern of gelsolin” value with gelsolin [2] is given as “does not modify”. For the same compound, the “Renal histopathology after 3 days of treatment” value in the data set with Kidney sections (after 3 days of treatment (FIG. 7)) is “no findings of tubular damage”. For the same compound, the “Renal histopathology at end of treatment” value in the data set on Kidney sections (hematoxilin-eosin, end of treatment (FIG. 2)) is on record as “clear tubular necrosis”. The “Full length gelsolin band in urine” value in the data set with gelsolin [3] (urine of rats with overt renal failure, Western blot (FIG. 6)) is on record as “induces the appearance”. Moreover, the “Day on which reg IIIb appears in the urine” value with reg IIIb [4] (rats, time course of treatment, Western blot (FIG. 7)) came to 4 days. Besides, the “Urinary level of reg IIIb” value in the data set on reg IIIb [4] (urine of rats with overt renal failure, Western blot (FIG. 6-A)) was “markedly increased”. Moreover, the “Renal reg IIIb gene expression” value in the data set with reg IIIb [5] is listed as “induces an increase”.
Regarding `N.N.[Cl][Pt][Cl]` [cisplatin], in the data set on Female Wistar rats (rat, in vivo), the “Renal failure (serum creatinine concentration and BUN)” value was “developed an overt renal failure”. Besides, in the data set on gelsolin [3] (rat, in vivo), the “Full length gelsolin band in urine” value is “absent in the urine from all of the rats treated with cisplatin, except for one of them”; the “~43 kDa gelsolin fragment (t-gelsolin) band in urine” value was “common to both gentamicin and cisplatin groups”.
